# Reference: US6923951B2, “Non-invasive localization of a light-emitting conjugate in a mammal” (priority 1994, dated 2005)
# What was measured:
# [1] = test system: HIV LTR; experiment: DMSO induction of HIV LTR-driven luciferase expression in transgenic mice; format: in vivo, mouse
# Excerpt: Transgenic mice containing a construct composed of the regulatory portion of the HIV LTR (U3 region) upstream of the coding sequence of the firefly luciferase gene were generated and evaluated for the emission of photons after transmission through tissues. A diagram of the construct is shown at the bottom of FIG. 13. Numbers along the construct indicate nucleotide positions relative to the start of transcription. Sequences matching known motifs of cellular transcription factors are indicated with the names of the factors. Transcription from the HIV LTR was activated in the right ear of each two animals with a single topical application of dimethyl sulfoxide (DMSO). The animal on the left in FIG. 13 was given 150 μl of an aqueous solution of the substrate luciferin (50 mg/ml) via intraperitoneal (i.p.) injection. The animal on the right was not given substrate. 20 min. post treatment with substrate the animals were imaged as described for the plate in FIG. 12 with a 20 min. integration time. […] This technology allows for the temporal and spatial analyses of transcriptional activity in living animals.
# The left half of the shaved dorsal surface of the transgenic animals and the left ear were treated twice daily for two days with DMSO to activate expression of the HIV-1 LTR. Luciferin was applied topically over the entire surface of the back and both ears, and animals were imaged immediately after addition of substrate.
# This signal is assumed to be due to ingestion of DMSO during grooming (FIG. 17).
# [2] = test system: SL1344lux Salmonella; experiment: Effects of ciprofloxacin treatment on bioluminescence from SL1344lux Salmonella in orally inoculated mice; format: in vivo, Salmonella typhimurium
# Description: Effects of Ciprofloxacin on Salmonella Infection. […] Mice are orally inoculated with SL1344lux and treated with […] of ciprofloxacin, an antibiotic effective against Salmonella infections. The mice are imaged at selected time periods following treatment, and the extent of infection is quantitated by measuring photon emission. Photon emission in treated mice is compared to values before the initiation of treatment, and to values from control mice that had been infected, but not treated. Results from one such experiment are shown in FIGS. 11A, 11B, 11C, 11D, and 11E and discussed in Example 10.
# Animals or objects to be imaged were immobilized in a light-tight box containing a door and a charge-coupled device (CCD) camera with a two stage microchannel intensifier head (model C2400-40, Hamamatsu). The camera was attached, via cables leading out of the box, to an “ARGUS 50” image processor (Hamamatsu).
# Bioluminescence images were generated by integrating photons for a selected period of time, typically 5 minutes. […]
# FIGS. 11B and 11D show composite images of representative animals from the control and treated groups, respectively, immediately before initiation of treatment of the experimental group. […] The total number of photons detected over the abdominal area were determined, normalized to the value at t=0, and plotted in FIG. 11A with respect to time post-treatment.
# [3] = test system: dermal cells in transgenic mice
# Description: In order to optimize delivery of substrate, the substrate was topically delivered to dermal cells. The HIV LTR was induced in the skin of mice with twice daily treatments of DMSO over the entire surface of the back and the right ear for two consecutive days. Substrate was applied to the skin in solutions prepared in DMSO. Concentrations included 200 mM, 100 mM, 50 mM, 25 mM, and 12.5 mM. 5 μl of each concentration were spotted, in quadruplicate, on the backs using a multichannel pipette with the highest concentrations near the head. 5 μl of the 50 mM solution was applied to each ear. 2 min. after application the animal was imaged as described in FIG. 12. […] Solutions of 25% H2O in DMSO to 100% H2O were tested.
# The experiment of induction of luciferase expression in ears and systemic luciferin delivery of Example 14 was repeated with topical administration of substrate in 100% DMSO (FIG. 15). […] See, FIGS. 13 and 15.
compound,measurement,setting,value
"C[S+](C)[O-] [DMSO, dimethyl sulfoxide]",Bioluminescence from internal tissues,[1]; animals treated with DMSO on one ear only,Bioluminescence was detectable from the abdomens
same,Bioluminescence after unilateral DMSO treatment,"[1]; left half of shaved dorsal surface and left ear treated twice daily for two days, luciferin topical over back and both ears",Unilateral emission of bioluminescence corresponding to the induced region
same,Bioluminescence from the DMSO-induced ear,"[1]; single topical application of DMSO on right ear, luciferin 150 μl of 50 mg/ml i.p., imaged 20 min. post substrate",light emission over the right ear
O=C(O)c1cn(C2CC2)c2cc(N3CCNCC3)c(F)cc2c1=O [ciprofloxacin],Bioluminescence over the abdomen,"[2]; Balb/c mice orally inoculated with SL1344lux, at 8 days p.i. 100 mg ciprofloxacin hydrochloride i.p. (3 mg/kg body weight), 5.5 h after initiation of treatment",reduced to undetectable levels
same,Infection (photon emission) compared to time zero and to untreated control mice,"[2]; mice orally inoculated with SL1344lux, treated with 100 mg of ciprofloxacin",significantly reduced
O=C(O)[C@H]1CSC(c2nc3ccc(O)cc3s2)=N1 [luciferin],Bioluminescence from spots containing 200 mM luciferin,[3]; 5 μl spots in DMSO on DMSO-induced back skin,roughly equivalent to that from the 100 mM spots
same,Bioluminescent response versus topical luciferin concentration,"[3]; 5 μl spots of luciferin in DMSO on DMSO-induced back skin, imaged 2 min. after application",increase linearly over the concentrations from 12.5 mM to 100 mM
same,Bioluminescence from solutions of luciferin containing water,"[3]; mouse, in vivo",no detectable bioluminescence
same,"Time of peak light emission, systemic substrate","[3]; mouse, in vivo",20 to 30 min
same,"Time of peak light emission, topical substrate","[3]; mouse, in vivo",immediately after topical treatment
